pEC50, pIC50, pKd: −log10 of the molar value. Like-named read-outs stand apart in the source and are kept apart here. Where a SMILES comes first, the peptide text is derived from it. [ ]: non-standard residue; d: D form. The star is where a group is joined. Sta = CC(C)C[C@H](N)[C@@H](O)CC(=O)O; Isovaleryl = CC(C)CC(=O)*; Nle = CCCC[C@H](N)C(=O)O
Tests used:
[1] = test system: cells; conditions: cited from earlier work
[2] = molecular target: T1, native calpain I (Homo sapiens, UniProt P07384); experiment: Inhibitor profile: inhibition of Succ-Leu-Tyr-MNA hydrolysis by native calpain I; assay type: biochemical; conditions: for difference in IC50 values with respect to the known calpain inhibitors / inhibition of activity: native enzyme
T1 construct: Native and recombinant enzymatically active calpain I were compared; from tissue; host or cells: human erythrocytes (red blood cells)
T1 sequence (P07384 2-714): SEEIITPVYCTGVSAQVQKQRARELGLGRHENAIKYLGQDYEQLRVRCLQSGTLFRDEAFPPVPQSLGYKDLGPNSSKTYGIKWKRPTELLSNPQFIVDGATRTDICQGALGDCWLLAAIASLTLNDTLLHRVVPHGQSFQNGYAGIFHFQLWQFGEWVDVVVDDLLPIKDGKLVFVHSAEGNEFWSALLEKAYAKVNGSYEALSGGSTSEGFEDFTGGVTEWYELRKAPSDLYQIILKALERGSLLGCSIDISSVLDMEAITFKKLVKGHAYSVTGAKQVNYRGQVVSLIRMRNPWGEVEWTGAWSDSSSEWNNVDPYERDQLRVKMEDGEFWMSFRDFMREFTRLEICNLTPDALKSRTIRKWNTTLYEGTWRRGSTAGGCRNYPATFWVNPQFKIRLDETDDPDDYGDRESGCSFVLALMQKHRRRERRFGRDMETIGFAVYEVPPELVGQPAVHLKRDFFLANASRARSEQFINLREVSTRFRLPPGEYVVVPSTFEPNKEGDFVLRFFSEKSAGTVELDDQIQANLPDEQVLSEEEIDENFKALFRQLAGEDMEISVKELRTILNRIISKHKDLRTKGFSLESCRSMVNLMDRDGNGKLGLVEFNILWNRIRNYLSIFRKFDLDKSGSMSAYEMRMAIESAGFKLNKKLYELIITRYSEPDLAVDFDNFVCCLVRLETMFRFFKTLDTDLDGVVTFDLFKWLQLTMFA
T1 sequence (P04632 1-268 partner): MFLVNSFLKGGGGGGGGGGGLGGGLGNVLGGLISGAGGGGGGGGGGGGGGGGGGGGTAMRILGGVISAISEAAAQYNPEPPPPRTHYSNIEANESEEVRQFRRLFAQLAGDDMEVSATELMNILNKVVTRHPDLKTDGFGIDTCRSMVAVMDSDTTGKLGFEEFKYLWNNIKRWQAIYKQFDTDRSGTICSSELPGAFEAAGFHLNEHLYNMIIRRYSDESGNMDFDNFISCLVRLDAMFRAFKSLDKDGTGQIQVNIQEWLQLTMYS
Experimental: (§1) To evaluate inhibitor sensitivities, stocks (40 times concentrated) of each inhibitor to be tested were prepared in 100% anhydrous DMSO and 5 μl of each inhibitor preparation were aliquoted into each of three wells of a 96 well plate. Dilutions of each enzyme preparation were made into assay buffer (i.e., 50 mM Tris, 50 mM NaCl, 1 mM EDTA, 1 mM EGTA, and 5 mM β-mercaptoethanol, pH 7.5 including 0.2 mM Succ-Leu-Tyr-MNA) and 175 μl of each dilution aliquoted into the same wells containing the independent inhibitor stocks as well as to positive control wells containing 5 μl DMSO, but no inhibitor. To start the reaction, 20 μl of 50 mM CaCl2 in assay buffer was added to all wells of the plate, excepting three, which were used as background signal baseline controls. Substrate hydrolysis was monitored every 5 minutes for a total of 30 minutes. […] The rate of hydrolysis was determined as the change in fluorescence units per the 10 minute time period between 5 and 15 minutes. At each inhibitor concentration tested, the percent inhibition was determined as the percent decrease in the rate of substrate hydrolysis in the presence of inhibitor versus the rate in its absence. […] Prototypic inhibitors of serine (PMSF) and aspartic proteases (pepstatin A) were also included in this determination.

[3] = molecular target: T2, recombinant human calpain I (Homo sapiens, UniProt P07384); experiment: Inhibitor profile: inhibition of Succ-Leu-Tyr-MNA hydrolysis by recombinant calpain I; assay type: biochemical; conditions: for difference in IC50 values with respect to the known calpain inhibitors / inhibition of activity: recombinant enzyme
T2 construct: the 2153 bp fragment containing the entire human 80 kDa calpain I cDNA; made in house; host or cells: Spodoptera frugiperda Sf21 cells, recombinant baculovirus (AcNPV-hCANPI-2-5, or coinfection with AcNPV-hCANP30-5 and AcNPV-hCANPI80-5)
T2 sequence (P07384 2-714): T1 sequence (P07384 2-714)
T2 sequence (P04632 1-268 partner): T1 sequence (P04632 1-268 partner)
Experimental: as §1

[4] = test system: native human calpain I; experiment: Calcium activation of native calpain (Succ-Leu-Tyr-MNA hydrolysis); assay type: biochemical; conditions: pH 7.3, 1 mM Succ-Leu-Tyr-MNA, approximation based on Kd of EGTA, read-out: concentration of calcium required to give 1/2 Vmax
Experimental: (§2) To determine the calcium concentration required for enzyme activity, tests were performed essentially as described by Kitahara et al., J. Biochem., 95:1759-1766 (1984). First, enzyme preparations were dialyzed overnight against 110 mM imidazole-HCl/1 mM EGTA buffer at pH 7.3 containing 5 mM β-mercaptoethanol. Ten-fold concentrated Ca^2+ /EGTA buffers were prepared by adding varying amounts of CaCl2 to the imidazole/EGTA buffer. Twenty μl of each buffer was put into three wells of a 96 well plate. Dilutions of dialyzed enzyme were made into the imidazole/EGTA buffer containing 1 mM Succ-Leu-Tyr-MNA and 180 μl of each preparation were added to the wells containing the various Ca/EGTA buffers. Substrate hydrolysis was measured every 5 minutes for 30 minutes. The 1/2 Vmax was determined as the rate of substrate hydrolysis which was 50% of the maximal rate achieved in the presence of the varying amounts of calcium. […] The [Ca^2+ ] activation profiles for both the native and recombinant enzymes are virtually identical. In FIG. 9, open squares with interior open circles represent recombinant human calpain I (rhCANPI). Shaded squares with interior open circles represent native human calpain I (nhCANPI).

[5] = molecular target: T2, recombinant human calpain I; experiment: Calcium activation of recombinant calpain (Succ-Leu-Tyr-MNA hydrolysis); assay type: biochemical; conditions: pH 7.3, 1 mM Succ-Leu-Tyr-MNA, approximation based on Kd of EGTA, read-out: concentration of calcium required to give 1/2 Vmax
Experimental: as §2

[6] = test system: native human calpain I; experiment: Calcium-dependent protease activity (Succ-Leu-Tyr-AMC), native calpain I; assay type: biochemical; conditions: 12.5 μM calpain inhibitor I; native human calpain I; FIG. 5a
Experimental: (§3) Sf21 cells were again seeded in 24 well plates at 1.5×10^5 cells/cm^2 and infected with either wild-type virus, coinfected with both AcNPV-hCANP30-5 and AcNPV-hCANPI80-5 (MOI of 5 for each virus), or infected with AcNPV-hCANPI-2-5 (MOI=5.7). The intracellular proteins were harvested at 40 hours after infection with 100 μl/well of the following lysis buffer: 50 mM Tris-HCl, pH 7.5, 50 mM NaCl, 1 mM EDTA, 1 mM EGTA, 5 mM β-mercaptoethanol, 0.1% Triton-100, followed by a 10 minutes centrifugation at 14,000×g at 4° C. to pellet the nuclei and some membranes. The in vitro enzyme activity of 20 μl of each extract (12.5-20 μg of total protein) was measured using the synthetic peptide substrate succinyl-leucine-tyrosine-aminomethyl coumarin (Succ-Leu-Tyr-AMC) at a 1 mM concentration with and without the addition of 5 mM CaCl2 following the procedure of Sasaki et al., J. Biol. Chem., 259:12489-12494 (1984), incorporated herein by reference. The activity obtained was compared with the enzyme activity of 2 μg of partially-purified native human calpain I produced according to the method of Siman et al., supra.
(§4) The activity in the presence of calcium was also measured with the addition of 12.5 μM calpain inhibitor I following the procedure disclosed in Sasaki et al., supra. The results are depicted in FIGS. 5a-d. In FIGS. 5a-d, open circles represent activity without calcium present. […]

[7] = molecular target: T2, recombinant human calpain I; experiment: Calcium-dependent protease activity (Succ-Leu-Tyr-AMC), recombinant calpain in Sf21 cell extracts; assay type: biochemical; conditions: 12.5 μM calpain inhibitor I; recombinant, coinfected or AcNPV-hCANPI-2-5; FIGS. 5c, 5d
Experimental: as §3, §4

[8] = test system: recombinant 80 kDa subunit of calpain I; experiment: Enzymatic activity of independently expressed 80 kDa subunit (Succ-Leu-Tyr-AMC); assay type: biochemical, human; conditions: 12.5 μM calpain inhibitor I; 33 μg unfractionated extract; FIG. 8
Experimental: as §3, with “The activity obtained was compared with the enzyme activity of 2 μg of partially-purified native human calpain I produced according to the method of Siman et al., supra.” left out
To determine the relative activity of the recombinantly produced 80 kDasubunit, the enzymatic activity of the subunit was examined in unfractionated extracts from Sf21 cells infected with AcNPV-hCANPI80-5. […] The same amount of enzyme activity for both the recombinant 80 kDa subunit and the recombinant calpain was then run on SDS-PAGE and the amount of each was qualitatively determined by immunoblot analysis as described in Example 4 above. […]

[9] = test system: neurons; conditions: rats, clamping both carotid arteries and lowering arterial blood pressure; cited from earlier work
[10] = imidazole-HCl/EGTA buffer, pH 7.3; used for approximating [Ca2+]; read-out: Kd of EGTA for calcium; cited from earlier work
[11] = test system: rat Na,K-ATPase; conditions: enzyme from insect cells; cited from earlier work
[12] = test system: EAA-induced protein breakdown; conditions: in vivo; cited from earlier work
[13] = test system: vulnerable hippocampal neurons; conditions: in vivo; cited from earlier work
[14] = test system: calpain; conditions: in vivo; cited from earlier work
[15] = Native calpain, 0.2 mM Succ-Leu-Tyr-MNA, rate between 5 and 15 minutes, read-out: IC50
[16] = Recombinant calpain, 0.2 mM Succ-Leu-Tyr-MNA, rate between 5 and 15 minutes, read-out: IC50

Molecule: calpastatin
- uptake by cells [1]: not readily taken up by cells

Molecule: CC(C)CC(=O)N[C@H](C(=O)N[C@H](C(=O)N[C@@H](CC(C)C)[C@@H](O)CC(=O)N[C@@H](C)C(=O)N[C@@H](CC(C)C)[C@@H](O)CC(=O)O)C(C)C)C(C)C [Pepstatin A] (Isovaleryl-VV[Sta]A[Sta]-OH)
- pIC50 [2, 15]: < 5.00
- difference in IC50 values with respect to the known calpain inhibitors [2]: 5-6 fold order of magnitude
- inhibition of activity [2]: insignificant inhibition
- pIC50 [3, 16]: < 5.00
- difference in IC50 values with respect to the known calpain inhibitors [3]: 5-6 fold order of magnitude
- inhibition of activity [3]: insignificant inhibition

Molecule: CC(C)C[C@H](NC(=O)OCc1ccccc1)C(=O)N[C@@H](CC(C)C)C(=O)N[C@@H](Cc1ccccc1)C(=O)C[S+](C)C [Z--Leu--Leu--Phe--CH2 S(+)Me2 Br(-), Z-Leu-Leu-Phe-CH2 S(+)Me2 Br(-)]
- pIC50 [2, 15]: 7.85
- pIC50 [3, 16]: 8.10

Molecule: calcium
- pEC50 [4]: 4.82
- pEC50 [5]: 4.85

Molecule: CCCC[C@@H](C=O)NC(=O)[C@H](CC(C)C)NC(=O)OCc1ccccc1 [Z--Leu--Nle--H, Z-Leu-Nle-H]
- pIC50 [2, 15]: 7.85
- pIC50 [3, 16]: 8.00

Molecule: CCCC[C@@H](C=O)NC(=O)[C@H](CC(C)C)NC(=O)[C@H](CC(C)C)NC(C)=O [calpain inhibitor I] (Ac-Leu-Leu-[Nle]-aldehyde)
- inhibition of calcium-dependent substrate hydrolysis [6]: inhibited
- inhibition of calcium-dependent substrate hydrolysis [7]: also inhibited
- inhibition of activity [8]: completely inhibited
- protection of neurons against ischemic and hypoxic damage [9]: protected neurons against ischemic and hypoxic damage

Molecule: CCNC(=O)C(=O)[C@H](Cc1ccccc1)NC(=O)[C@H](CC(C)C)NC(=O)OCc1ccccc1 [Z--Leu--Phe--CONHEt, Z-Leu-Phe-CONHEt]
- pIC50 [2]: 7.25
- pIC50 [3]: 7.47

Molecule: O=S(=O)(F)Cc1ccccc1 [PMSF, phenylmethylsulfonyl fluoride]
- pIC50 [2]: < 3.00
- difference in IC50 values with respect to the known calpain inhibitors [2]: 5-6 fold order of magnitude
- inhibition of activity [2]: insignificant inhibition
- pIC50 [3]: < 3.00
- difference in IC50 values with respect to the known calpain inhibitors [3]: 5-6 fold order of magnitude
- inhibition of activity [3]: insignificant inhibition

Molecule: O=C(O)CN(CCOCCOCCN(CC(=O)O)CC(=O)O)CC(=O)O [EGTA]
- pKd [10]: 5.26

Molecule: Na,K-ATPase: functional rat Na,K-ATPase expressed using the baculovirus expression system
- activity relative to enzyme from dog kidney outer medulla [11]: 20-25%

Molecule: CC(=O)N[C@@H](CC(C)C)C(=O)N[C@@H](CC(C)C)C(=O)N[C@H](C=O)CCCNC(=N)N [leupeptin]
- lowering EAA-induced protein breakdown [12]: unsuccessful
- uptake by cells [1]: failed to enter the cells
- protection of neurons against ischemic and hypoxic damage [9]: protected neurons against ischemic and hypoxic damage
- protection against degeneration of hippocampal neurons after ischemia [13]: protected against the degeneration of vulnerable hippocampal neurons after ischemia
- block of trauma-evoked calpain response [14]: block a trauma-evoked calpain response in vivo
